Experiment: Inhibitory activity against varicella zoster virus (VZV) protease
`Cc1csc2nc([C@H](C)NC(=O)/C=C/C(=O)c3ccccc3[N+](=O)[O-])oc(=O)c12` [(E)-4-(2-Nitro-phenyl)-4-oxo-but-2-enoic acid [(S)-1-(5-methyl-4-oxo-4H-thieno[2,3-d][1,3]oxazin-2-yl)-ethyl]-amide] gave an IC50 of 840 nM.
For `Cc1csc2nc([C@H](C)NC(=O)/C=C/C(=O)c3cccc(C#N)c3)oc(=O)c12` [(E)-4-(3-Cyano-phenyl)-4-oxo-but-2-enoic acid [(S)-1-(5-methyl-4-oxo-4H-thieno[2,3-d][1,3]oxazin-2-yl)-ethyl]-amide], the IC50 was 410 nM.
Compound `COc1cccc(C(=O)/C=C/C(=O)N[C@@H](C)c2nc3scc(C)c3c(=O)o2)c1` [(E)-4-(3-Methoxy-phenyl)-4-oxo-but-2-enoic acid [(S)-1-(5-methyl-4-oxo-4H-thieno[2,3-d][1,3]oxazin-2-yl)-ethyl]-amide] has an IC50 of 340 nM.
Work on `CCOc1ccc(C(=O)/C=C/C(=O)N[C@@H](C)c2nc3scc(C)c3c(=O)o2)cc1` [(E)-4-(4-Ethoxy-phenyl)-4-oxo-but-2-enoic acid [(S)-1-(5-methyl-4-oxo-4H-thieno[2,3-d][1,3]oxazin-2-yl)-ethyl]-amide] yielded an IC50 of 1600 nM.
For `Cc1csc2nc([C@H](C)NC(=O)/C=C/C(=O)c3cccs3)oc(=O)c12` [(E)-4-Oxo-4-thiophen-2-yl-but-2-enoic acid [(S)-1-(5-methyl-4-oxo-4H-thieno[2,3-d][1,3]oxazin-2-yl)-ethyl]-amide], the IC50 was 650 nM.
Work on `CC(=O)C=CC(=O)N[C@@H](C)c1nc2scc(C)c2c(=O)o1` [(E)-4-Oxo-pent-2-enoic acid [(S)-1-(5-methyl-4-oxo-4H-thieno[2,3-d][1,3]oxazin-2-yl)-ethyl]-amide] yielded an IC50 of 1360 nM.
With `Cc1csc2nc([C@H](C)NC(=O)CCC(=O)c3cccs3)oc(=O)c12` [N-[(S)-1-(5-Methyl-4-oxo-4H-thieno[2,3-d][1,3]oxazin-2-yl)-ethyl]-4-oxo-4-thiophen-2-yl-butyramide] the IC50 was 820 nM.

— BindingDB's records for doi:10.1016/s0960-894x(99)00005-0 (Smithkline Beecham Pharmaceuticals, 1999)
